Results: ChEMBL document CHEMBL1156903, “Synthesis of bisboron compounds and their strong inhibitory activity on store-operated calcium entry” (Bioorg Med Chem Lett, 2010)

assay: Inhibition of thapsigargin-induced SOCE channel in fura-2 loaded human Jarkart T cells in presence of 2 mM calcium; conditions: Jurkat

IC50	Structure (SMILES)
310 nM	NCCOB(c1ccccc1)c1ccc(CCOCc2ccc(B(OCCN)c3ccccc3)cc2)cc1
410 nM	NCCOB(c1ccccc1)c1ccc(Oc2ccc(B(OCCN)c3ccccc3)cc2)cc1
640 nM	Cc1ccc(B(OCCN)c2ccc(Oc3ccc(B(OCCN)c4ccc(C)c(Cl)c4)cc3)cc2)cc1Cl

The remaining lines, values behind:

Structure (SMILES)	IC50
NCCOB(c1ccccc1)c1cccc(COCc2cccc(Oc3ccccc3)c2)c1	1900 nM
NCCOB(c1ccccc1)c1cccc(COCc2cccc(B(OCCN)c3ccccc3)c2)c1	320 nM
NCCOB(c1ccccc1)c1ccccc1	15000 nM
NCCOB(c1ccccc1)c1ccc(COCc2ccc(B(OCCN)c3ccccc3)cc2)cc1	430 nM
NCCOB(c1ccccc1)c1ccc(-c2ccc(B(OCCN)c3ccccc3)cc2)cc1	450 nM
